Experiment [1] concerns the target purified human, His-tagged PRC2 complex (Homo sapiens, UniProt O75530+Q15910). Nature of the experiment: Hot Spot HMT assay: inhibition of PRC2 enzymatic activity (transfer of tritiated methyl from SAM to core histone, filter binding). In kind it is biochemical. The conditions noted are these: Inhibition of PRC2-mediated enzymatic activity; 10 nM PRC2 complex, 0.05 mg/ml core histone H3, 1 uM 3H-SAM, 1 hr at 30°C. A digest of the protocol:
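Five-subunit complex (His-EZH2, Flag-EED, His-SUZ12, His-AEBP2, His-RbAp48) at 10 nM with 0.05 mg/ml core histone H3, pH 8 Tris buffer, 1% DMSO; 20 min compound pre-incubation at 30°C. Started with 1 uM [3H]-SAM, 1 hr at 30°C; tritiated H3 counted by scintillation. Compounds diluted from 1.0 µM top concentration.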

The subject of a further experiment is Karpas 422 cells. Nature of the experiment: Karpas 422 cell viability, CTG (Cell Titre Glo) assay. In kind it is cell-based, human. The conditions noted are these: Homo sapiens; Inhibition of proliferation of Karpas 422 cells (EZH2 Y641N); viability measured Day 4, Day 7 or Day 11, time point of the tabulated values not stated. As to the method:
Karpas 422 cell line is a human B cell non-Hodgkin's lymphoma cell line established from a patient having DLBCL. This EZH2 heterozygotic cell line expresses a mutant form of EZH2 enzyme (Y641N) that increases histone H3 methylation and this mutation has been implicated in the tumorgenesis of lymphomas, such as DLBCL.
Karpas 422 cells (PHE cat no., 06101702) were cultured in RPMI medium supplemented with 20% fetal bovine serum and 1% penicillin/1% streptomycin and plated at a density of 1000 cells/90 µl/well in 96 well white assay plates. A dose response curve for compounds of the present invention was determined by adding a 10µl aliquot of stock solutions of varying concentrations of compounds to the same medium in each well, over a concentration range of 10µM using 3-fold dilutions to a final concentration of 1.5nM. The plates were incubated at 37° C for predetermined time periods, Day 4, Day 7, or Day 11, and the viability of the cells was measured using a CTG assay kit (Cell Titre Glo; Promega cat.no G7573) on Day 4 and Day 7 in accordance with the manufacturer's instructions.
For the viability assay for the Day 11 plates, the plates were subjected to centrifugation at 1100 rpm for five minutes on Day 7 and the supernatant was removed by aspiration. The cells were resuspended in 90 µl aliquot of the appropriate growth medium lacking the compound followed by addition of 10 µl of a 10X stock of the same compound at the same concentration. The viability of the Day 11 cells was measured using the CTG assay kit described above in accordance with the manufacturer's instructions. The IC50 values for each compound at each predetermined time point were calculated using Graph pad PRISM software and the results are shown in Table 15. A = ≤250 nM; B = […] - ≤500 nM; and C = >500 nM.

Structures are written as SMILES.

The term IC50 denotes the concentration that inhibits the measured activity by half. Low values mean greater potency in that assay, high ones weaker potency in that assay.

Sequence of purified human, His-tagged PRC2 complex (Q15910 whole entry): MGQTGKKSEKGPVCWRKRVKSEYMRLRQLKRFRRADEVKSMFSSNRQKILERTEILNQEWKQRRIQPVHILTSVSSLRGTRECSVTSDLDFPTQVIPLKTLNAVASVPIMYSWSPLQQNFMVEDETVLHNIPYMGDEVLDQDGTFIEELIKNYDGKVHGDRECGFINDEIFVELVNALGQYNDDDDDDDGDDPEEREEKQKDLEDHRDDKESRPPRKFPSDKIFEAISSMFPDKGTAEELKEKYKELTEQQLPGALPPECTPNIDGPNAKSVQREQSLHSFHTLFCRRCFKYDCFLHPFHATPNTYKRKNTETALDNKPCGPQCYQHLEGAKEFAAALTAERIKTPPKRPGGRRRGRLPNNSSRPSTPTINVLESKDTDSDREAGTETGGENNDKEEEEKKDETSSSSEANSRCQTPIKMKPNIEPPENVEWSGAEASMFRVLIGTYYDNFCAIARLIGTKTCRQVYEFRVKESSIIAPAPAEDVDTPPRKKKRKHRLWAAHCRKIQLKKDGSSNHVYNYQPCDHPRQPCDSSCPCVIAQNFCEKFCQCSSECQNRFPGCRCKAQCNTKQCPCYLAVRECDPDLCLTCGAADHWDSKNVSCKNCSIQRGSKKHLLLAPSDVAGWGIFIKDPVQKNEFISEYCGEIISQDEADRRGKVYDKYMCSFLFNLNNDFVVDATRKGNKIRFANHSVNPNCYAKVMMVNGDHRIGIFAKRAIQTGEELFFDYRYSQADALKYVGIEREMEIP
Sequence of purified human, His-tagged PRC2 complex (O75530 whole entry): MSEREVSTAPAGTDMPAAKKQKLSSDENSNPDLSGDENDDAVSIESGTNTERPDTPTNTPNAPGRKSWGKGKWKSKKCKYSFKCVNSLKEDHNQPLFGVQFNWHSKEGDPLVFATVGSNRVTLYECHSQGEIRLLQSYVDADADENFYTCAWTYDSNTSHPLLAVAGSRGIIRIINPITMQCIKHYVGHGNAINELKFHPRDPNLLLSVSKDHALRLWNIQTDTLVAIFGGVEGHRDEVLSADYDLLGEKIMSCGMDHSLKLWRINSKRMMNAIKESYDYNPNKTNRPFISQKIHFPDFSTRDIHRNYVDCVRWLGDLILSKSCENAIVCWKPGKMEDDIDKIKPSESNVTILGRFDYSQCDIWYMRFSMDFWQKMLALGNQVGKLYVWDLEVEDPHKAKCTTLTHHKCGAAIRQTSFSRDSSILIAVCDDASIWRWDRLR
Sequence of purified human, His-tagged PRC2 complex (Q15022 whole entry partner): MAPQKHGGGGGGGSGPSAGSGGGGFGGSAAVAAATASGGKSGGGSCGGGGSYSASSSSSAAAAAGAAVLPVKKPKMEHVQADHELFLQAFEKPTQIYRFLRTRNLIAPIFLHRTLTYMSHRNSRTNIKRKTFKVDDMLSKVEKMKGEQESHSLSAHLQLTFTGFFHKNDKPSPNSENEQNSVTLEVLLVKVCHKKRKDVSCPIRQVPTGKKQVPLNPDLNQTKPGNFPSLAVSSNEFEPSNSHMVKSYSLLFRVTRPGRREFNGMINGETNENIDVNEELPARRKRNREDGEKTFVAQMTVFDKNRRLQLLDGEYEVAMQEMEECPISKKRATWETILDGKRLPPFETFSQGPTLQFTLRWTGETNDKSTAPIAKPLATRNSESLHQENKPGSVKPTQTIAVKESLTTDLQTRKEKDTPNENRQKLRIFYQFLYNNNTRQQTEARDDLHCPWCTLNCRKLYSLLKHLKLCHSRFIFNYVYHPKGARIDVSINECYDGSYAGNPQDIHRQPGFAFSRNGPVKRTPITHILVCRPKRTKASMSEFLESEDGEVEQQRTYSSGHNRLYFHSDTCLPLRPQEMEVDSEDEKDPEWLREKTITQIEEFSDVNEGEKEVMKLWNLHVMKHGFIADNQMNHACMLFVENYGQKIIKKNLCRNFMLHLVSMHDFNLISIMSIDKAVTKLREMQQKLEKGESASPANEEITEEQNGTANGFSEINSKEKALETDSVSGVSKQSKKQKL
Sequence of purified human, His-tagged PRC2 complex (Q6ZN18 whole entry partner): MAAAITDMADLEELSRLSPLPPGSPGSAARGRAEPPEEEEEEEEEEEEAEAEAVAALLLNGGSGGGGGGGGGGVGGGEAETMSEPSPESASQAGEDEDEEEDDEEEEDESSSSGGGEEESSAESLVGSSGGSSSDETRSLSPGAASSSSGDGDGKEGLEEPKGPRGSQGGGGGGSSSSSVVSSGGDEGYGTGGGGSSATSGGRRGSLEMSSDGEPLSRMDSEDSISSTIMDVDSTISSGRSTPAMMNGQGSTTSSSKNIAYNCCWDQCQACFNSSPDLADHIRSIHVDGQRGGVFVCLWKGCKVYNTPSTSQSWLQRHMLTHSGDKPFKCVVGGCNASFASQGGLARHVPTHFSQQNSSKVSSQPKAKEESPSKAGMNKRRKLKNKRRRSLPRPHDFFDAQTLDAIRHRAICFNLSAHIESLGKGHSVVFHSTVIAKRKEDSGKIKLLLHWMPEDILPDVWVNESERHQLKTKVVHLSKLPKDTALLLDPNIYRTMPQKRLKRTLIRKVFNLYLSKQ
Sequence of purified human, His-tagged PRC2 complex (Q09028 whole entry partner): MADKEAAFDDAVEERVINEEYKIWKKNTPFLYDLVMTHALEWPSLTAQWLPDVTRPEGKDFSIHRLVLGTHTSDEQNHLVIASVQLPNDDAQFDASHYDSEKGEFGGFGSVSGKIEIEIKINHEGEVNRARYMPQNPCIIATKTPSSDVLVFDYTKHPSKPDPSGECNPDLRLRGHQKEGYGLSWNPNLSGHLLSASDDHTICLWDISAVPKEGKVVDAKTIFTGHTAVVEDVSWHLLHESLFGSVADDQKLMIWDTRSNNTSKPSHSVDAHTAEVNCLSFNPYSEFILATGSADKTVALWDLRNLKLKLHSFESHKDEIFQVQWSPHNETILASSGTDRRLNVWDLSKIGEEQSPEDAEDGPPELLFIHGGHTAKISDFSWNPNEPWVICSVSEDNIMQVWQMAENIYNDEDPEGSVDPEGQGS

In the case of `Cc1cc(-c2cnc(NCc3c(Cl)ccc4c3CCO4)n3cc(C#N)nc23)n(C)n1` [Example 29, 5-(((5-chloro-2,3-dihydrobenzofuran-4-yl)methyl)amino)-8-(1,3-dimethyl-1H-pyrazol-5-yl)imidazo[1,2-c]pyrimidine-2-carbonitrile], the IC50 (in experiment [1]; with Karpas 422 cells) was above 0.5 µM each time.

With `N#Cc1cn2c(NCc3c(F)ccc4c3CCO4)ncc(-c3cccnc3)c2n1` [Example 100, 5-(((5-fluoro-2,3-dihydrobenzofuran-4-yl)methyl)amino)-8-(pyridin-3-yl)imidazo[1,2-c]pyrimidine-2-carbonitrile], the IC50 was below 0.1 µM in experiment [1] and at most 0.25 µM in the experiment on Karpas 422 cells.

With `N#Cc1cn2c(NCc3c(F)ccc4c3CCO4)ncc(-c3cnn(C4CCCCO4)c3)c2n1` (centres unmarked) [Example 118, 5-(((5-fluoro-2,3-dihydrobenzofuran-4-yl)methyl)amino)-8-(1-(tetrahydro-2H-pyran-2-yl)-1H-pyrazol-4-yl)imidazo[1,2-c]pyrimidine-2-carbonitrile], the IC50 in experiment [1] was below 0.1 µM; with Karpas 422 cells it was above 0.5 µM.

On to `CCn1cc(-c2cnc(NCc3c(F)ccc4c3CCO4)n3cc(C#N)nc23)cn1` [Example 119, 8-(1-ethyl-1H-pyrazol-4-yl)-5-(((5-fluoro-2,3-dihydrobenzofuran-4-yl)methyl)amino)imidazo[1,2-c]pyrimidine-2-carbonitrile], for which the IC50 in experiment [1] is 0.1 to 0.5 µM; in the experiment with Karpas 422 cells, at most 0.25 µM.

On to `Cc1nc(C2CC2)ncc1-c1cnc(NCc2c(F)ccc3c2CCO3)n2cc(C#N)nc12` [Example 25, 8-(2-cyclopropyl-4-methylpyrimidin-5-yl)-5-(((5-fluoro-2,3-dihydrobenzofuran-4-yl)methyl)amino)imidazo[1,2-c]pyrimidine-2-carbonitrile], for which the IC50 in experiment [1] lay within 0.1 to 0.5 µM; in the experiment on Karpas 422 cells, 0.25 to 0.5 µM.

On to `COc1cc(-c2cnc(NCc3c(F)ccc4c3CCO4)n3cc(C#N)nc23)ccn1` [Example 113, 5-(((5-fluoro-2,3-dihydrobenzofuran-4-yl)methyl)amino)-8-(2-methoxypyridin-4-yl)imidazo[1,2-c]pyrimidine-2-carbonitrile], for which the IC50 in experiment [1] is below 0.1 µM; in the experiment with Karpas 422 cells, above 0.5 µM.

On to `N#Cc1cn2c(NCc3c(F)ccc4c3CCO4)ncc(-c3ccc(CO)nc3)c2n1` [Example 147, 5-(((5-fluoro-2,3-dihydrobenzofuran-4-yl)methyl)amino)-8-(6-(hydroxymethyl)pyridin-3-yl)imidazo[1,2-c]pyrimidine-2-carbonitrile], for which the IC50 in experiment [1] is 0.1 to 0.5 µM; with Karpas 422 cells, at most 0.25 µM.

On to `N#Cc1cn2c(NCc3c(F)ccc4c3CCO4)ncc(-c3cnn(C4COC4)c3)c2n1` [Example 106, 5-(((5-fluoro-2,3-dihydrobenzofuran-4-yl)methyl)amino)-8-(1-(oxetan-3-yl)-1H-pyrazol-4-yl)imidazo[1,2-c]pyrimidine-2-carbonitrile], for which the IC50 in experiment [1] was 0.1 to 0.5 µM; in the experiment with Karpas 422 cells, above 0.5 µM.

As for `CN1CCN(C(=O)c2ccc(-c3cnc(NCc4c(F)ccc5c4CCO5)n4cc(C#N)nc34)cc2)CC1` [Example 115, 5-(((5-fluoro-2,3-dihydrobenzofuran-4-yl)methyl)amino)-8-(4-(4-methylpiperazine-1-carbonyl)phenyl)imidazo[1,2-c]pyrimidine-2-carbonitrile], the IC50 in experiment [1] was below 0.1 µM; in the experiment on Karpas 422 cells it was at most 0.25 µM.

Take `N#Cc1ccc(-c2cnc(NCc3c(F)ccc4c3CCO4)n3cc(C#N)nc23)cn1` [Example 128, 8-(6-cyanopyridin-3-yl)-5-(((5-fluoro-2,3-dihydrobenzofuran-4-yl)methyl)amino)imidazo[1,2-c]pyrimidine-2-carbonitrile]: the values for the IC50 (in experiment [1]; in the experiment with Karpas 422 cells) were below 0.1 µM and above 0.5 µM, respectively.

Consider `CN(C)Cc1ccc(-c2cnc(NCc3c(F)ccc4c3CCO4)n3cc(C#N)nc23)c(F)c1F` [Example 37, 8-(4-((dimethylamino)methyl)-2,3-difluorophenyl)-5-(((5-fluoro-2,3-dihydrobenzofuran-4-yl)methyl)amino)imidazo[1,2-c]pyrimidine-2-carbonitrile], for which the IC50 is below 0.1 µM in experiment [1] and at most 0.25 µM with Karpas 422 cells.

Take `COC1CCN(Cc2ccc(-c3cnc(NCc4c(F)ccc5c4CCO5)n4cc(C#N)nc34)cc2)C1` (centres unmarked) [Example 53, 5-(((5-fluoro-2,3-dihydrobenzofuran-4-yl)methyl)amino)-8-(4-((3-methoxypyrrolidin-1-yl)methyl)phenyl)imidazo[1,2-c]pyrimidine-2-carbonitrile]: the IC50 in experiment [1] is below 0.1 µM; with Karpas 422 cells, at most 0.25 µM.

On to `Cc1nn(C(C)C)cc1-c1cnc(NCc2c(F)ccc3c2CCO3)n2cc(C(=O)O)nc12` [Example 5, 5-(((5-fluoro-2,3-dihydrobenzofuran-4-yl)methyl)amino)-8-(1-isopropyl-3-methyl-1H-pyrazol-4-yl)imidazo[1,2-c]pyrimidine-2-carboxylic acid], for which the IC50 is below 0.1 µM in experiment [1] and above 0.5 µM in the experiment on Karpas 422 cells.

Turning to `Cc1nn(C[C@H](C)O)c(C)c1-c1cnc(NCc2c(F)ccc3c2CCO3)n2cc(C#N)nc12` [Example 65, (S)-5-(((5-fluoro-2,3-dihydrobenzofuran-4-yl)methyl)amino)-8-(1-(2-hydroxypropyl)-3,5-dimethyl-1H-pyrazol-4-yl)imidazo[1,2-c]pyrimidine-2-carbonitrile], the IC50 is 0.1 to 0.5 µM in experiment [1] and above 0.5 µM in the experiment on Karpas 422 cells.

As for `Cn1nccc1-c1cnc(NCc2c(F)ccc3c2CCO3)n2cc(C#N)nc12` [Example 114, 5-(((5-fluoro-2,3-dihydrobenzofuran-4-yl)methyl)amino)-8-(1-methyl-1H-pyrazol-5-yl)imidazo[1,2-c]pyrimidine-2-carbonitrile], the IC50 in experiment [1] was below 0.1 µM; in the experiment on Karpas 422 cells, at most 0.25 µM.

As for `COCCn1cc(-c2cnc(NCc3c(F)ccc4c3CCO4)n3cc(C#N)nc23)cn1` [Example 117, 5-(((5-fluoro-2,3-dihydrobenzofuran-4-yl)methyl)amino)-8-(1-(2-methoxyethyl)-1H-pyrazol-4-yl)imidazo[1,2-c]pyrimidine-2-carbonitrile], the values for the IC50 (in experiment [1]; in the experiment on Karpas 422 cells) were 0.1 to 0.5 µM and at most 0.25 µM, respectively.

As for `N#Cc1cn2c(NCc3c(F)ccc4c3CCO4)ncc(-c3cncc(F)c3)c2n1` [Example 97, 5-(((5-fluoro-2,3-dihydrobenzofuran-4-yl)methyl)amino)-8-(5-fluoropyridin-3-yl)imidazo[1,2-c]pyrimidine-2-carbonitrile], the IC50 in experiment [1] is below 0.1 µM; in the experiment with Karpas 422 cells, at most 0.25 µM.

Take `Cc1cc(-c2cnc(NCc3cccc4c3CCO4)n3cc(C(N)=O)nc23)n(C)n1` [Example 19, 5-(((2,3-dihydrobenzofuran-4-yl)methyl)amino)-8-(1,3-dimethyl-1H-pyrazol-5-yl)imidazo[1,2-c]pyrimidine-2-carboxamide]: the IC50 in experiment [1] was below 0.1 µM; in the experiment with Karpas 422 cells, 0.25 to 0.5 µM.

On to `Cc1nc(C2CC2)ncc1-c1cnc(NCc2c(F)ccc3c2CCO3)n2cc(C(=O)O)nc12` [Example 7, 8-(2-cyclopropyl-4-methylpyrimidin-5-yl)-5-(((5-fluoro-2,3-dihydrobenzofuran-4-yl)methyl)amino)imidazo[1,2-c]pyrimidine-2-carboxylic acid], for which the IC50 is below 0.1 µM in experiment [1] and above 0.5 µM with Karpas 422 cells.

Consider `CN(C)Cc1ccc(-c2cnc(NCc3c(F)ccc4c3CCO4)n3cc(C#N)nc23)c(Cl)c1` [Example 33, 8-(2-chloro-4-((dimethylamino)methyl)phenyl)-5-(((5-fluoro-2,3-dihydrobenzofuran-4-yl)methyl)amino)imidazo[1,2-c]pyrimidine-2-carbonitrile], for which the IC50 in experiment [1] is below 0.1 µM; with Karpas 422 cells it was at most 0.25 µM.

On to `COc1ncc(-c2cnc(NCc3c(F)ccc4c3CCO4)n3cc(C#N)nc23)cc1C#N` [Example 130, 8-(5-cyano-6-methoxypyridin-3-yl)-5-(((5-fluoro-2,3-dihydrobenzofuran-4-yl)methyl)amino)imidazo[1,2-c]pyrimidine-2-carbonitrile], for which the IC50 was 0.1 to 0.5 µM in experiment [1] and above 0.5 µM with Karpas 422 cells.

As to `Cc1ncncc1-c1cnc(NCc2c(F)ccc3c2CCO3)n2cc(C#N)nc12` [Example 110, 5-(((5-fluoro-2,3-dihydrobenzofuran-4-yl)methyl)amino)-8-(4-methylpyrimidin-5-yl)imidazo[1,2-c]pyrimidine-2-carbonitrile], the values for the IC50 (in experiment [1]; with Karpas 422 cells) were below 0.1 µM and at most 0.25 µM, respectively.

The record behind these values is patent EP4043466B1, “PRC2 INHIBITORS” (Mirati Therapeutics, Inc., priority 2018, dated 2019).
